The test system of data set [1] is Escherichia coli. In words: Antibacterial activity against Escherichia coli BAA-2469 by broth microdilution method. The class given is functional. A general note: Dilution methods test growth across graded concentrations, often in twofold steps.
Data set [2] concerns Escherichia coli. As to the kind of experiment: Antibacterial activity against Escherichia coli ELZ4239 by broth microdilution method. It is filed as functional.
Data set [3] has as its system Escherichia coli. As to the kind of experiment: Antibacterial activity against Escherichia coli ELZ4072 by broth microdilution method. The class given is functional.
Data set [4] relates to Staphylococcus aureus. As to the kind of experiment: Antibacterial activity against Staphylococcus aureus ATCC 29213 by broth microdilution method. It is filed as functional.
Data set [5] relates to Staphylococcus aureus. As to the kind of experiment: Antibacterial activity against Staphylococcus aureus NRS3 by broth microdilution method. The class given is functional.
The test system of data set [6] is Escherichia coli. As to the kind of experiment: Antibacterial activity against Escherichia coli ELZ4017 by broth microdilution method. It is filed as functional.
Data set [7] has as its system Escherichia coli. In words: Antibacterial activity against Escherichia coli ELZ4346 by broth microdilution method. It is filed as functional.
In data set [8] the test system is Klebsiella pneumoniae. As to the kind of experiment: Antibacterial activity against Klebsiella pneumoniae ATCC 27736 by broth microdilution method. It is filed as functional.
For data set [9], the system named is Enterobacter cloacae. As to the kind of experiment: Antibacterial activity against Enterobacter cloacae ATCC 29893 by broth microdilution method. The class given is functional.
In data set [10] the test system is Klebsiella pneumoniae. As to the kind of experiment: Antibacterial activity against Klebsiella pneumoniae 4-38 by broth microdilution method. It is filed as functional.
Data set [11] relates to Enterobacter cloacae. In words: Antibacterial activity against Enterobacter cloacae 1-60 by broth microdilution method. The class given is functional.
In data set [12] the test system is Escherichia coli. As to the kind of experiment: Antibacterial activity against Escherichia coli MG1655 by broth microdilution method. The class given is functional. The conditions noted are these: K-12 substr. MG1655.
Data set [13] relates to Escherichia coli. As to the kind of experiment: Antibacterial activity against Escherichia coli ELZ4081 by broth microdilution method. The class given is functional.
The subject of data set [14] is Enterobacter cloacae. As to the kind of experiment: Antibacterial activity against Enterobacter cloacae 3-46 by broth microdilution method. It is filed as functional.
Data set [15] deals with Escherichia coli. As to the kind of experiment: Antibacterial activity against Escherichia coli ELZ4045 by broth microdilution method. It is filed as functional.
Data set [16] is described as follows: Drug accumulation in Escherichia coli MG1655 assessed per 10^12 CFU at 50 uM incubated for 10 mins under shaking condition by LC-MS/MS analysis. The class given is ADME, K-12 substr. MG1655.
The test system of data set [17] is Klebsiella pneumoniae. In words: Antibacterial activity against Klebsiella pneumoniae 6-73 by broth microdilution method. It is filed as functional.
Data set [18] has as its system Pseudomonas aeruginosa. As to the kind of experiment: Growth inhibition of Pseudomonas aeruginosa PA14 after 24 hrs. It is filed as functional, organism-based. The following applies: PA14, 24 h.
For data set [19], the system named is Pseudomonas aeruginosa. As to the kind of experiment: Antibacterial activity against Pseudomonas aeruginosa KW799/61 after 20 hrs under iron-deficient medium by broth microdilution method. The conditions noted are these: KW799/61, 20 h. It is filed as functional.
Data set [20] relates to Pseudomonas aeruginosa. In words: Antibacterial activity against Pseudomonas aeruginosa PAO1 after 20 hrs under iron-rich medium by broth microdilution method. The class given is functional. The conditions noted are these: PAO1, 20 h.
Data set [21] concerns Pseudomonas aeruginosa. In words: Antibacterial activity against Pseudomonas aeruginosa KW799 after 20 hrs under iron-rich medium by broth microdilution method. The class given is functional. The conditions noted are these: KW799, 20 h.
In data set [22] the test system is Pseudomonas aeruginosa. As to the kind of experiment: Antibacterial activity against Pseudomonas aeruginosa KW799 after 20 hrs under iron-deficient medium by broth microdilution method. The class given is functional. The following applies: KW799, 20 h.
Data set [23] has as its system Pseudomonas aeruginosa. In words: Antibacterial activity against Pseudomonas aeruginosa KW799/61 after 20 hrs under iron-rich medium by broth microdilution method. The class given is functional. The following applies: KW799/61, 20 h.
Data set [24] deals with Pseudomonas aeruginosa. In words: Antibacterial activity against Pseudomonas aeruginosa PA4 after 20 hrs under iron-rich medium by broth microdilution method. It is filed as functional. The following applies: PA4, 20 h.
The subject of data set [25] is Pseudomonas aeruginosa. As to the kind of experiment: Antibacterial activity against Pseudomonas aeruginosa PA4 after 20 hrs under iron-deficient medium by broth microdilution method. The class given is functional. The following applies: PA4, 20 h.
For data set [26], the system named is Pseudomonas aeruginosa. As to the kind of experiment: Antibacterial activity against Pseudomonas aeruginosa PAO1 after 20 hrs under iron-deficient medium by broth microdilution method. It is filed as functional. The conditions noted are these: PAO1, 20 h.
Data set [27] deals with Staphylococcus epidermidis. In words: Antibacterial activity against Staphylococcus epidermidis ATCC 12228 after 16 to 20 hrs by CLSI protocol based broth microdilution method. It is filed as functional.
Data set [28] has as its system Staphylococcus aureus. As to the kind of experiment: Antibacterial activity against Staphylococcus aureus ATCC 25923 after 16 to 20 hrs by CLSI protocol based broth microdilution method. The class given is functional.
For data set [29], the system named is Enterococcus faecalis. As to the kind of experiment: Antibacterial activity against Enterococcus faecalis ATCC 29212 by broth microdilution method. The class given is functional.
Data set [30] relates to Staphylococcus aureus. In words: Antibacterial activity against Staphylococcus aureus BAA-977 expressing iermA by broth microdilution method. It is filed as functional.
A further data set has as its system Acinetobacter baumannii. As to the kind of experiment: Antibacterial activity against Acinetobacter baumannii ATCC 19606 by broth microdilution method. It is filed as functional. The following applies: ATCC 19606 = CIP 70.34 = JCM 6841.
The test system of data set [31] is Streptococcus pneumoniae. As to the kind of experiment: Antibacterial activity against Streptococcus pneumoniae UNT-042 expressing ermB/mefA by broth microdilution method. It is filed as functional.
The test system of data set [32] is Pseudomonas aeruginosa. As to the kind of experiment: Antibacterial activity against Pseudomonas aeruginosa ATCC 27853 by broth microdilution method. It is filed as functional.
The subject of data set [33] is Staphylococcus aureus. As to the kind of experiment: Antibacterial activity against methicillin-resistant Staphylococcus aureus NRS384 expressing MsrA by broth microdilution method. It is filed as functional.
The test system of data set [34] is Streptococcus pneumoniae. In words: Antibacterial activity against Streptococcus pneumoniae ATCC 49619 by broth microdilution method. The class given is functional.
The test system of data set [35] is Enterococcus faecalis. In words: Antibacterial activity against Enterococcus faecalis UNT-047 expressing ermB by broth microdilution method. It is filed as functional.
In data set [36] the test system is Staphylococcus aureus. As to the kind of experiment: Antibacterial activity against methicillin-resistant Staphylococcus aureus NRS119 by CLSI-based broth microdilution method. The class given is functional, organism-based.

pIC50: −log10 of the molar value. Values after ≈ are worked out from the molar mass of the structure shown. Positions of bridges follow the written chain, without caps; N, C: chain ends. Non-standard residues stand in square brackets, D forms with d. Residues, ends and D or L forms follow the SMILES beside them. *: point of attachment. Octatrienoyl(2E,4E,6E) = C/C=C/C=C/C=C/C(=O)*; Pro(4R-Me) = C[C@H]1CN[C@H](C(=O)O)C1; NMeA = CN[C@@H](C)C(=O)O

Results on eleven molecules are retold here after ChEMBL document CHEMBL4321783, “Recent Progress in Natural-Product-Inspired Programs Aimed To Address Antibiotic Resistance and Tolerance” (J Med Chem, 2019).

Broadly, the MIC is the least concentration at which growth counts as inhibited. A low value points to greater potency. As for `Cc1cc(=O)n(C)c2c3c4c(cc12)c(C)cc(=O)n4CCO3`, the MIC against Escherichia coli [1] is over 32 µg/mL; in the data set on Escherichia coli [2] it was over 32 µg/mL; in the data set with Escherichia coli [3], over 32 µg/mL; in the data set on Staphylococcus aureus [4] it was 0.06 to 1 µg/mL (≈ 0.202 to 3.37 µM); against Staphylococcus aureus [5], 0.06 to 1 µg/mL (≈ 0.202 to 3.37 µM); against Escherichia coli [6], over 32 µg/mL. The MIC with Escherichia coli [7] was over 32 µg/mL; in the data set with Klebsiella pneumoniae [8], over 32 µg/mL; against Enterobacter cloacae [9], at least 32 µg/mL; in the data set with Klebsiella pneumoniae [10] it was over 32 µg/mL; with Enterobacter cloacae [11], at least 32 µg/mL; with Escherichia coli [12] it was over 32 µg/mL. The MIC was over 32 µg/mL in the data set on Escherichia coli [13], at least 32 µg/mL against Enterobacter cloacae [14], over 32 µg/mL against Escherichia coli [15] and over 32 µg/mL against Klebsiella pneumoniae [17]. The same molecule displayed a Drug uptake in data set [16] of 298 nmol.
For orientation: pIC50 means the IC50 on a negative log10 scale, so that one unit is a factor of ten. A low value points to a high IC50. In turn, `CCCCCC[C@H](CCCCC[C@@H](O)C(N)=O)OC(=O)[C@@H]1CC(F)=CN1C(=O)c1ccccc1O` had a pIC50 in the data set with Pseudomonas aeruginosa [18] of 7.72.
Turning to `CC1(C)S[C@@H]2[C@H](NC(=O)[C@H](N)c3ccc(O)cc3)C(=O)N2[C@H]1C(=O)O` [AMOXICILLIN], the MIC in the data set with Pseudomonas aeruginosa [19], in the data set with Pseudomonas aeruginosa [20], with Pseudomonas aeruginosa [21], against Pseudomonas aeruginosa [22], in the data set on Pseudomonas aeruginosa [23] and against Pseudomonas aeruginosa [24] was over 100 µM throughout. Besides, the MIC against Pseudomonas aeruginosa [25] and in the data set with Pseudomonas aeruginosa [26] was over 100 µM throughout.
Turning to `c1ccc2nc3ccccc3nc2c1` [PHENAZINE], the MIC (in [27]; against Staphylococcus aureus [28]) was 6.25 µM (≈ 1.13 µg/mL) throughout.
As for `Cn1c2cccc(=O)c-2nc2ccccc21` [PYOCYANIN], the MIC (in data set [27]; against Staphylococcus aureus [28]) was 50 µM (≈ 10.5 µg/mL) throughout.
Take `CC[C@H]1OC(=O)[C@H](C)[C@@H](O[C@H]2C[C@@](C)(OC)[C@@H](O)[C@H](C)O2)[C@H](C)[C@@H](O[C@@H]2O[C@H](C)C[C@H](N(C)C)[C@H]2O)[C@](C)(O)C[C@@H](C)C(=O)[C@H](C)[C@@H](O)[C@]1(C)O` [ERYTHROMYCIN]: the MIC is 0.5 µg/mL (≈ 0.681 µM) in the data set on Staphylococcus aureus [4]; 1 µg/mL (≈ 1.36 µM) in the data set on Enterococcus faecalis [29]; over 256 µg/mL in the data set on Staphylococcus aureus [30]; 16 µg/mL (≈ 21.8 µM) with Acinetobacter baumannii; over 256 µg/mL against Streptococcus pneumoniae [31]; 64 µg/mL (≈ 87.2 µM) with Pseudomonas aeruginosa [32]. Moreover, the values for the MIC against Staphylococcus aureus [33], in the data set with Streptococcus pneumoniae [34] and against Enterococcus faecalis [35] were 64 µg/mL (≈ 87.2 µM), 0.03 µg/mL (≈ 0.0409 µM) and over 256 µg/mL, respectively.
In the case of `CCCCCC[C@@H](CCCCC[C@H](O)C(N)=O)OC(=O)[C@@H]1CC=CN1C(=O)c1ccccc1O`, the pIC50 with Pseudomonas aeruginosa [18] was 5.10.
In turn, `C/C=C/C=C/C=C/C(=O)N[C@@H](Cc1ccccc1)C(=O)N[C@H]1COC(=O)[C@@H]2C[C@@H](C)CN2C(=O)[C@H](C)NC(=O)[C@H](C)N(C)C(=O)[C@@H]2CCCN2C1=O` ({Octatrienoyl(2E,4E,6E)}-FSP[NMeA]A[Pro(4R-Me)]; ester 2-C) had a pIC50 in the data set on Staphylococcus aureus [36] of 5.06.
As to `CCCCCC[C@H](CCCCC[C@@H](O)C(N)=O)NC(=O)[C@@H]1CC=CN1C(=O)c1ccccc1O`, in the data set with Pseudomonas aeruginosa [18], the pIC50 is under 3.60.
`CCCCCC[C@H](CCCCCCC(N)=O)OC(=O)[C@@H]1CC=CN1C(=O)c1ccccc1O` showed a pIC50 with Pseudomonas aeruginosa [18] of 7.46.
As for `CCCCCC[C@@H](CCCCC[C@@H](O)C(N)=O)OC(=O)[C@@H]1CC=CN1C(=O)c1ccccc1O`, the pIC50 in the data set with Pseudomonas aeruginosa [18] was 5.82.
